Target: T1, bovine cardiac myofibrils (Bos taurus, UniProt Q9BE39)
T1 construct: full-length cardiac myosin in the context of the native sarcomere; from tissue; host or cells: bovine cardiac left ventricular tissue, homogenized with detergent (triton X-100)
Test: Skinned bovine cardiac myofibril ATPase assay (PK/LDH-coupled)
Type: biochemical
Conditions: inhibition of steady-state ATPase activity of bovine cardiac myofibrils, calcium at 75% activation (pCa75), PM12 buffer pH 6.8; for IC50: read-out: CDMF75 IC50
Procedure: To evaluate the effect of compounds on the ATPase activity of full-length cardiac myosin in the context of the native sarcomere, skinned myofibril assays were performed. Bovine cardiac myofibrils were obtained by homogenizing bovine cardiac left ventricular tissue in the presence of a detergent such as triton X-100. Such treatment removes membranes and a majority of the soluble cytoplasmic proteins but leaves intact the cardiac sarcomeric acto-myosin apparatus. Myofibril preparations retain the ability to hydrolyze ATP in an Ca^2+ regulated manner ATPase activities of such myofibril preparations in the presence and absence of compounds were assayed at Ca^2+ concentrations activating to a defined fraction of the maximal rate (i.e., 25%, 75%). Small molecule agents were assessed for their ability to inhibit the steady-state ATPase activity of bovine cardiac myofibrils using pyruvate kinase and lactate dehydrogenase (PK/LDH)-coupled enzyme system. This assay regenerates myosin-produced ADP into ATP by oxidizing NADH, producing an absorbance change at 340 nm. Prior to testing small molecule agents, the bovine cardiac myofibrils were assessed for their calcium responsiveness and the calcium concentration that achieves either a 50% (pCa50) or 75% (pCa75) activation of the myofibril system was chosen as the final condition for assessing the inhibitory activity of the small molecule agents. All enzymatic activity was measured in a buffered solution containing 12 mM PIPES (piperazine-N,N′-bis(2-ethanesulfonic acid), 2 mM magnesium chloride at pH 6.8 (PM 12 buffer). Final assay conditions were 1 mg/mL of bovine cardiac myofibrils, 4 U/mL pyruvate kinase, 6 U/mL lactate dehydrogenase, 50 μM ATP, 0.1 mg/mL BSA (bovine serum albumin), 10 ppm antifoam, 1 mM DTT, 0.5 mM NADH, 1.5 mM PEP, 0.6 mM EGTA, and an amount of CaCl2) sufficient to achieve either 50% or 75% activation of the myofibril ATPase activity. Results for compounds tested are provided in Table A. Compounds tested were prepared in accordance with the synthetic procedures described herein.

T1 sequence (Q9BE39 whole entry): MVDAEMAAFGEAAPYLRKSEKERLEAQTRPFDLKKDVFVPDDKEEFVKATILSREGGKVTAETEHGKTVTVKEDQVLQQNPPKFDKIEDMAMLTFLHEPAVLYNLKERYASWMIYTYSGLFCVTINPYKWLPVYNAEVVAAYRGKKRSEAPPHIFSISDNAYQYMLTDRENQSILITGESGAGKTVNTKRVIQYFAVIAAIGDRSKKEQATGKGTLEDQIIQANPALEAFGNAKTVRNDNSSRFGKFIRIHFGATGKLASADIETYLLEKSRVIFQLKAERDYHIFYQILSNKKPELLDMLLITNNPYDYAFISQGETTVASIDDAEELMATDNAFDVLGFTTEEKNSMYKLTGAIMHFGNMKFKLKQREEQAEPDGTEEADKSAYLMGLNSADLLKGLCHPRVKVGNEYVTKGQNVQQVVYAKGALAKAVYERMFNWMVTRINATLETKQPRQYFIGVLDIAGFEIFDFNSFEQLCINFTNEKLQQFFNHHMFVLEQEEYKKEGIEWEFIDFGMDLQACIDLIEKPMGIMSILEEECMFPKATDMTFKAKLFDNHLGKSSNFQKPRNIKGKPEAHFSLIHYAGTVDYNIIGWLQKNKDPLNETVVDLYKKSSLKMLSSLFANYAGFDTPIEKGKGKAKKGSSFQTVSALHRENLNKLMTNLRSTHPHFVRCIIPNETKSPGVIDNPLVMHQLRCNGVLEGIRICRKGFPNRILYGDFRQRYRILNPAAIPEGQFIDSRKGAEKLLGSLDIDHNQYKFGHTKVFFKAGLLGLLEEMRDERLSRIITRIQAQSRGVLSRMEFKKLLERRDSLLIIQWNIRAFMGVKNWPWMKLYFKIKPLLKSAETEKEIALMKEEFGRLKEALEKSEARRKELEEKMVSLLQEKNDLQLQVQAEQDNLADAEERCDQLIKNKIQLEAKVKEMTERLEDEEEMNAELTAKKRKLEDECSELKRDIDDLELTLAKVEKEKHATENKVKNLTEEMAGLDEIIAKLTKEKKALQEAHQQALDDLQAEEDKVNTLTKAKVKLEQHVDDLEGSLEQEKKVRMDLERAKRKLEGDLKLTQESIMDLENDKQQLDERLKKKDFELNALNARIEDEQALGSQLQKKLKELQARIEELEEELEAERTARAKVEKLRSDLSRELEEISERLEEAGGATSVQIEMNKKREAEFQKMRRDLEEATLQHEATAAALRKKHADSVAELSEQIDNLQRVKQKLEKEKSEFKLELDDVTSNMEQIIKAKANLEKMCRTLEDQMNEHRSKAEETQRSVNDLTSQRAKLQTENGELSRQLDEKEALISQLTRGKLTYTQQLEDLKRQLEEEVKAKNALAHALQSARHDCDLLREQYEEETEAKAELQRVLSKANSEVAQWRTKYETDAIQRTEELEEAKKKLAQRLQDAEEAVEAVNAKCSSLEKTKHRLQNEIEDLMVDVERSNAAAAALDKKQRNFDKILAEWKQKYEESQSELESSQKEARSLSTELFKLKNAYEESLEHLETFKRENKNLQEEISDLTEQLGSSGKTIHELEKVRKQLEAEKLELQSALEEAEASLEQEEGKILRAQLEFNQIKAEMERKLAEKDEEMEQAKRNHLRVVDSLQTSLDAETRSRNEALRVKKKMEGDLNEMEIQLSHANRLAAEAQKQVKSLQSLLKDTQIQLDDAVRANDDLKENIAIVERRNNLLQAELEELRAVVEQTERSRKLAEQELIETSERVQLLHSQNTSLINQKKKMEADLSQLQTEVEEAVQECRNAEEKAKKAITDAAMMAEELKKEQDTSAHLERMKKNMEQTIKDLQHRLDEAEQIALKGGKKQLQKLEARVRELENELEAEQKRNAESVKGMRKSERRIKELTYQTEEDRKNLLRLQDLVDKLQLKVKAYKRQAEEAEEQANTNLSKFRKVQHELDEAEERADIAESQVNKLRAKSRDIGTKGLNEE
T1 sequence (P85100 whole entry partner): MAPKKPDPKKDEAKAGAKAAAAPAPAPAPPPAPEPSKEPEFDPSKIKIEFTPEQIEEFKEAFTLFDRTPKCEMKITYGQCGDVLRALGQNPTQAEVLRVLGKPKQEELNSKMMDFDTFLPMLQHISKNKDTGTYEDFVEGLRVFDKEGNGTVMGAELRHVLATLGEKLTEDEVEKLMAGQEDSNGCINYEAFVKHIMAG
T1 sequence (Q3SZE5 whole entry partner): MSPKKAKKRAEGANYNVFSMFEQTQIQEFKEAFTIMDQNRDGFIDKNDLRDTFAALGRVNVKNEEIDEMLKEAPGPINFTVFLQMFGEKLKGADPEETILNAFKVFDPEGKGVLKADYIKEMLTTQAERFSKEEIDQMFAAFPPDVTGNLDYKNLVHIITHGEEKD

Row | SMILES | CDMF75 IC15 | IC50
1 | Cc1cc(NC(=O)C2CCc3cc(-c4noc(C(F)F)n4)ccc32)ccn1 (racemic) [Compound 14, 5-(5-(difluoromethyl)-1,2,4-oxadiazol-3-yl)-N-(2-methylpyridin-4-yl)-2,3-dihydro-1H-indene-1-carboxamide] | 4.4 µM | 23.1 µM
2 | Cc1cc(NC(=O)C2CCc3cc(-c4noc(C5CC5)n4)ccc32)ccn1 (racemic) [Compound 20, 5-(5-cyclopropyl-1,2,4-oxadiazol-3-yl)-N-(2-methylpyridin-4-yl)-2,3-dihydro-1H-indene-1-carboxamide] | 2.6 µM | 13.9 µM
3 | CCc1nc(-c2ccc3c(c2)CCC32COC(=O)N2)no1 (racemic) [Compound 26, 5-(5-ethyl-1,2,4-oxadiazol-3-yl)-2,3-dihydrospiro[indene-1,4′-oxazolidin]-2′-one] | 0.8 µM | 3 µM
4 | Cc1nc(-c2ccc3c(c2)CCC32COC(=O)N2)no1 (racemic) [Compound 29, 5-(5-methyl-1,2,4-oxadiazol-3-yl)-2,3-dihydrospiro[indene-1,4′-oxazolidin]-2′-one] | 4.2 µM | 18.4 µM
5 | CC(C)c1nc(-c2ccc3c(c2)CCC32COC(=O)N2)no1 (racemic) [Compound 32, 5-(5-isopropyl-1,2,4-oxadiazol-3-yl)-2,3-dihydrospiro[indene-1,4′-oxazolidin]-2′-one] | 2.7 µM | 11.4 µM
6 | O=C1NC2(CCc3cc(-c4noc(C5CC5)n4)ccc32)CO1 (racemic) [Compound 35, 5-(5-cyclopropyl-1,2,4-oxadiazol-3-yl)-2,3-dihydrospiro[indene-1,4′-oxazolidin]-2′-one] | 1.5 µM | 5.8 µM
7 | O=C1NC2(CCc3cc(-c4noc(C(F)F)n4)ccc32)CO1 (racemic) [Compound 38, 5-(5-(difluoromethyl)-1,2,4-oxadiazol-3-yl)-2,3-dihydrospiro[indene-1,4′-oxazolidin]-2′-one] | 2.5 µM | 14.1 µM
8 | CCc1nc(-c2ccc3c(c2)OCC32COC(=O)N2)no1 (racemic) [Compound 41, 6-(5-ethyl-1,2,4-oxadiazol-3-yl)-2H-spiro[benzofuran-3,4′-oxazolidin]-2′-one] | 0.6 µM | 2.2 µM
9 | Cc1cc(NC(=O)C2CCc3cc(-c4noc(C(F)F)n4)ccc32)ccn1 (single isomer, unassigned) [Compound 14A] | 2.2 µM | 11 µM
10 | Cc1cc(NC(=O)C2CCc3cc(-c4noc(C5CC5)n4)ccc32)ccn1 (single isomer, unassigned) [Compound 20A] | 1.2 µM | 5.6 µM
11 | Cc1cc(NC(=O)C2CCc3cc(-c4noc(C5CC5)n4)ccc32)ccn1 (single isomer, unassigned) [Compound 20B] | 33.2 µM | > 39.2 µM
12 | CCc1nc(-c2ccc3c(c2)CCC32COC(=O)N2)no1 (single isomer, unassigned) [Compound 26A] | 31.0 µM | > 39.2 µM
13 | CCc1nc(-c2ccc3c(c2)CCC32COC(=O)N2)no1 (single isomer, unassigned) [Compound 26B] | 0.3 µM | 1.6 µM
14 | Cc1nc(-c2ccc3c(c2)CCC32COC(=O)N2)no1 (single isomer, unassigned) [Compound 29A] | >39.2 µM | > 39.2 µM
15 | Cc1nc(-c2ccc3c(c2)CCC32COC(=O)N2)no1 (single isomer, unassigned) [Compound 29B] | 2.1 µM | 9.1 µM
16 | CC(C)c1nc(-c2ccc3c(c2)CCC32COC(=O)N2)no1 (single isomer, unassigned) [Compound 32A] | 1.5 µM | 6.3 µM
17 | CC(C)c1nc(-c2ccc3c(c2)CCC32COC(=O)N2)no1 (single isomer, unassigned) [Compound 32B] | >39.2 µM | > 39.2 µM
18 | O=C1NC2(CCc3cc(-c4noc(C5CC5)n4)ccc32)CO1 (single isomer, unassigned) [Compound 35A] | >39.2 µM | > 39.2 µM
19 | O=C1NC2(CCc3cc(-c4noc(C5CC5)n4)ccc32)CO1 (single isomer, unassigned) [Compound 35B] | 0.6 µM | 3.4 µM
20 | O=C1NC2(CCc3cc(-c4noc(C(F)F)n4)ccc32)CO1 (single isomer, unassigned) [Compound 38A] | 1.8 µM | 7.5 µM

Other lines, results leading:

Row | CDMF75 IC15 | IC50 | SMILES
21 | 1.6 µM | 5.5 µM | CCc1nc(-c2ccc3c(c2)CCC3C(=O)Nc2ccnc(C)c2)no1 (racemic) [Compound 2, 5-(5-ethyl-1,2,4-oxadiazol-3-yl)-N-(2-methylpyridin-4-yl)-2,3-dihydro-1H-indene-1-carboxamide]
22 | >39.2 µM | > 39.2 µM | CCc1nc(-c2ccc3c(c2)CCC3C(=O)Nc2ccnn2C)no1 (racemic) [Compound 5, 5-(5-ethyl-1,2,4-oxadiazol-3-yl)-N-(1-methyl-1H-pyrazol-5-yl)-2,3-dihydro-1H-indene-1-carboxamide]
23 | 1.3 µM | 6.1 µM | CCc1nc(-c2ccc3c(c2)CCC3C(=O)Nc2ccccc2)no1 (racemic) [Compound 8, 5-(5-ethyl-1,2,4-oxadiazol-3-yl)-N-phenyl-2,3-dihydro-1H-indene-1-carboxamide]
24 | >39.2 µM | > 39.2 µM | CCNC(=O)C1CCc2cc(-c3noc(CC)n3)ccc21 (racemic) [Compound 11, N-ethyl-5-(5-ethyl-1,2,4-oxadiazol-3-yl)-2,3-dihydro-1H-indene-1-carboxamide]
25 | 6.0 µM | 33.4 µM | Cc1cc(NC(=O)C2CCc3cc(-c4noc(C)n4)ccc32)ccn1 (racemic) [Compound 17, 5-(5-methyl-1,2,4-oxadiazol-3-yl)-N-(2-methylpyridin-4-yl)-2,3-dihydro-1H-indene-1-carboxamide]
26 | 5.6 µM | 29 µM | Cc1cc(NC(=O)C2CCc3cc(-c4noc(C(C)C)n4)ccc32)ccn1 (racemic) [Compound 23, 5-(5-isopropyl-1,2,4-oxadiazol-3-yl)-N-(2-methylpyridin-4-yl)-2,3-dihydro-1H-indene-1-carboxamide]
27 | 0.7 µM | 3 µM | CCc1nc(-c2ccc3c(c2)CCC3C(=O)Nc2ccnc(C)c2)no1 (single isomer, unassigned) [Compound 2A]
28 | 17.5 µM | > 39.2 µM | CCc1nc(-c2ccc3c(c2)CCC3C(=O)Nc2ccnc(C)c2)no1 (single isomer, unassigned) [Compound 2B]
29 | >39.2 µM | > 39.2 µM | CCc1nc(-c2ccc3c(c2)CCC3C(=O)Nc2ccnn2C)no1 (single isomer, unassigned) [Compound 5A]
30 |  | > 39.2 µM | CCc1nc(-c2ccc3c(c2)CCC3C(=O)Nc2ccnn2C)no1 (single isomer, unassigned) [Compound 5B]
31 | 0.7 µM | 2.8 µM | CCc1nc(-c2ccc3c(c2)CCC3C(=O)Nc2ccccc2)no1 (single isomer, unassigned) [Compound 8A]
32 | >39.2 µM | > 39.2 µM | CCc1nc(-c2ccc3c(c2)CCC3C(=O)Nc2ccccc2)no1 (single isomer, unassigned) [Compound 8B]
33 | >39.2 µM | > 39.2 µM | CCNC(=O)C1CCc2cc(-c3noc(CC)n3)ccc21 (single isomer, unassigned) [Compound 11A]
34 | 26.3 µM | > 39.2 µM | CCNC(=O)C1CCc2cc(-c3noc(CC)n3)ccc21 (single isomer, unassigned) [Compound 11B]
35 | >39.2 µM | > 39.2 µM | Cc1cc(NC(=O)C2CCc3cc(-c4noc(C(F)F)n4)ccc32)ccn1 (single isomer, unassigned) [Compound 14B]
36 | 2.9 µM | 13.6 µM | Cc1cc(NC(=O)C2CCc3cc(-c4noc(C)n4)ccc32)ccn1 (single isomer, unassigned) [Compound 17A]
37 | >39.2 µM | > 39.2 µM | Cc1cc(NC(=O)C2CCc3cc(-c4noc(C)n4)ccc32)ccn1 (single isomer, unassigned) [Compound 17B]
38 | 3.6 µM | 14.6 µM | Cc1cc(NC(=O)C2CCc3cc(-c4noc(C(C)C)n4)ccc32)ccn1 (single isomer, unassigned) [Compound 23A]
39 | >39.2 µM | > 39.2 µM | Cc1cc(NC(=O)C2CCc3cc(-c4noc(C(C)C)n4)ccc32)ccn1 (single isomer, unassigned) [Compound 23B]

Reference: US11964967B2, “Cardiac sarcomere inhibitors” (Cytokinetics, Inc., priority 2018, dated 2024)
